Data taken from US10463709B2, “Short synthetic peptide for treating diseases and/or conditions related to angiogenesis” (MacKay Memorial Hospital, priority 2015, dated 2019).
“Also recorded” adds a separate entry of the source. Square brackets hold non-standard residues; d marks the D form. Ends that are not written are not given here.

Experiments:
RPMI8226 cells = experiment: MTT assay, VEGF-induced proliferation of RPMI8226 cells; assay type: cell-based
Protocol: The multiple myeloma line RPMI8226 was cultivated in complex medium (RPMI1640) supplemented with 10% (vol/vol) heat-inactivated fetal calf serum (Invitrogen), 50 μg/mL penicillin, 50 μg/mL streptomycin, and 2 mM L-glutamine at 37° C. in a 5% CO2 atmosphere. RPMI8226 cells were cultured in serum-free RPMI1640 medium for 24 hrs, and then cells were seeded in 48-well culture plates (3×10^5 cells/well) and continued to culture in 0.5 ml fresh serum-free RPMI1640 medium containing 25 μM peptide for another 24 hrs. The cell viability was determined by the MTT assay. Briefly, 50 μL of MTT stock solution (50 μL) (5 mg MTT dissolved in 1 ml of sterile PBS) was added to each culture well. In addition, 50 μL of the MTT stock solution was added in 500 μL of medium as the negative control. The culture plate was incubated at 37° C. for 4 hours. Aliquots (450 μl) from each sample were taken to a new well of 48-well culture plate, adding 100 μL DMSO, mixing thoroughly using the pipette and reacted at 37° C. for 20 min and read absorbance at 570 nm. These synthesized peptides were then subject to MTT assay, in which vascular endothelial growth factor (VEGF) was used as a stimulant to induce cell proliferation. Results are depicted in FIGS. 1 to 4.

HUVECs [1] = experiment: Apoptosis assay (annexin V-FITC); assay type: cell-based; conditions: HUVECs
Protocol: The percentage of apoptotic HUVEC cells was assayed using TACS annexin V-FITC kit. The percentage of annexin V-positive cells was determined using in situ staining according to the manufacturer's instruction. The cell number was determined by counterstaining with Hoechst 33342. The nuclei in ten randomly selected fields of the three different chambers (˜7200 cells) were counted. Specimens were examined and photographed on a Zeiss epifluorescence microscope (×100, 10 fields/sample). Pictures were recorded on Zeiss software.

[2] = system: human uterine sarcoma cells (MES-SA/Dx5); experiment: Tumorigenicity assay, xenografted human uterine sarcoma; assay type: in vivo, nude mice; conditions: 10 mg/kg intraperitoneal every 2 days
Protocol: MES-SA/Dx5 cells (5×10^6 cells in 0.1 ml) were implanted by subcutaneous injections in the right flank region of female nude mice (n=24, each animal weighted about 20 g before the assay began). The experiments were approved by the Mackay Memorial Hospital Review Board for animal investigation. Treatment was initiated in animals when the tumor volume was above 80 mm^3. Vehicle DMSO, the present synthetic peptide or the control peptide (10 mg/kg) was administered by intraperitoneal injections every 2 days. Tumor progression was monitored for 10 days; size of the tumor was measured every 3 to 5 days with a caliper and the volume was calculated using the following formula: ½×length×width^2.
To this purpose, human uterine sarcoma cells (MES-SA/Dx5) were implanted in nude mice to induce tumor formation, and when the volume of each tumor reached 80 mm^3, animals were then treated with vehicle alone, or the 7-mer peptide at the dose of 10 mg/kg, every 2 days for 10 days. Results are depicted in FIG. 9.

[3] = system: STZ-induced diabetic mice; experiment: Vascular abnormalities in the retina of diabetic mice; assay type: in vivo
Protocol: Diabetic mice were generated by a single intraperitoneal injection of streptozotocin (STZ) (150 mg/kg body weight). STZ was freshly prepared in 0.1 M citrate buffer (pH 4.5). After injection, mice were supplied with 10% sucrose overnight to prevent sudden hypoglycemic shock. After 1 week, mice with non-fasting blood glucose levels >500 mg/dl were defined as diabetic and used for the experiments. DMSO Vehicle or the present synthetic peptide (10 mg/kg; n≥3 per peptide) were administered by intraperitoneal injections twice a day. After treatment for 24 h, mice were intraperitoneal injected with 100 mg/kg of BSA-FITC for further 30 min.
To determine vascular lesions (hemorrhaging areas) in retina, the animals were euthanized by CO2 inhalation, and the eyes were enucleated and fixed by 2% paraformaldehyde for 2 hr and flat-mounted onto glass slides to obtain optical sections by an epifluorescence microscopy. Vascular lesions in the retina was scored in all four retinal quadrants of flat mounts by using a 20× objective. Six microscopic fields were sampled in each quadrant in both the central and peripheral retina, and data were presented as the average number of lesions/retina.
Vascular FITC-BSA leakage was determined by a fluorescence spectrofluorometer based on standard curves of FITC-BSA at excitation and emission wavelengths of 488 and 535 nm, respectively, and then normalized to a non-injected control retina. For this analysis, retinas were dissected from treated and untreated diabetic mice after BSA-FITC injections, and each was solubilized in 300 μL ice-cold PBS.
Diabetic retinopathy is characterized by blood-retinal barrier (BRB) breakdown and neurotoxicity. To evaluate the possible beneficial effect of the present synthetic peptides on diabetic retinopathy, STZ-induced diabetic mice were intraperitoneally injected with 7-mer peptide, DMSO vehicle or the control peptide (SEQ ID NO: 22). The retinal vascular abnormality was then monitored by detecting the extravasation of BSA-fluorescein. Results are depicted in FIG. 11.

HUVECs [4] = experiment: VEGF-induced HUVEC proliferation assay; assay type: cell-based; conditions: VEGF (10 ng/mL) + 25 μM peptide; vs untreated HUVECs
Protocol: HUVECs (1×10^5 cells per well of 6-well plate) were grown in Medium 200 with Low Serum Growth Supplement (LSGS Kit, supplement contains 1.9% FBS, 3 ng/ml bFGF, 10 μg/ml heparin, 1 μg/ml hydrocortisone, and 10 ng/ml EGF). Culture plates were coated with 2% gelatin. Cells (passages 4-8) were cultured at 37° C. in a humidified atmosphere of 5% CO2. […]
HUVECs (1×10^5 cells per well of 6-well plate) in Medium 200 supplemented with LSGS Kit were allowed to grow onto 6-well plates coated with 2% gelatin for 24 hours at 37° C. in 5% CO2. The culture medium was then replaced with serum free Medium 200 overnight. […] Then, cells were harvested by trypsin-EDTA and counted using a hemocytometer.

HUVECs [5] = experiment: Endothelial cell capillary-like tube formation assay; assay type: cell-based; conditions: VEGF (10 ng/mL) + 25 μM peptide; vs untreated HUVECs
Protocol: To examine the effect of the present synthetic peptide on in vitro angiogenesis, growth factor-reduced matrigel was pipetted into pre-chilled 24-well plates (150 μl matrigel per well) and polymerized for 45 min at 37° C. […] In this experiment, images were captured using a Cannon camera on Zeiss inverted microscope with magnification ×40 and tube length was quantified using Image analysis software (Image-Pro Plus). The control peptide as used in the present invention has the sequence of DLYRVR (SEQ ID NO: 10).

rat aortic ring = experiment: Rat aortic ring assay (ex vivo microvessel sprouting); parameters: species or system Sprague Dawley rats; conditions: beta-FGF induced; peptide 50 μM
Protocol: Thoracic aortas were removed from euthanized 10-week-old male Sprague Dawley rats, and gently stripped off periaortic fibroadipose tissue. Aortas were sectioned to about 2-mm length rings, which were embedded in Matrigel. To induce angiogenesis, human recombinant bFGF (50 ng/ml) or bFGF plus the peptide (50 μM) was added in Matrigel. Gel (200 μl) containing an aortic ring was polymerized in 12-well plates (37° C. for 30 min) and then incubated with 1 ml of Medium 200 supplemented with 100 units/ml penicillin, and […] streptomycin and 2% FBS at 37 ° C. The cultures were propagated at 37 ° C. in a humidified incubator for up to 7 days. Sprouts were recorded using an inverted microscope platform (Leica DM16000B) with bright-field optics. Each ring was scored by three independent observers on a scale 0-4 depending on the degree of sprouting vessel being observed (0=no sprouting, 4=profuse sprouting). The experiment was repeated in triplicates.

B16-F10 melanoma cells = experiment: Experimental pulmonary metastasis in mice; assay type: in vivo, C57BL/6 mice
Protocol: 2×10^5 B16-F10 cells were suspended in 100 μl PBS and checked for viability using trypan blue staining (>95%). The B16-F10 cells were then injected into the tail vein of the 6-week-old female C57BL/6 mice; while vehicle (DMSO), the present synthetic peptide or the control peptide (10 mg/kg) were administered by intraperitoneal injections every 2 days after the B16-F10 cell injection. Five mice were used for each group. On day 8 after inoculation of cells, the lungs were removed, and the number of visible colonies on the surface of the lungs were counted using a dissecting microscope.
Metastasis is the foremost cause of death from cancer. In this example, to investigate the efficacy of the present synthetic peptide on the metastasis of cancer cells, B16-F10 cells were injected into the tail vein of a mouse, the animal was then treated with the present synthetic peptide (7-mer or 7-mer DD, 10 mg/Kg) by intraperitoneal injections every 2 days. Upon completion of the experiment, the lungs were then removed and the tumor colonies visible to the eyes were then counted. Results are depicted in FIG. 10.

[6] = system: rat model of laser-induced wet AMD; experiment: Laser-induced wet AMD, rat model; assay type: in vivo; conditions: fluorescein angiography day 14; vs PBS vehicle
Source text: Further, the effect of 7-mer or 7-mer DD on rat model of laser-induced wet AMD was also investigated. Fluorescein angiography images were obtained on day 14 after laser burn, and the images were subsequently scored. Results are depicted in FIG. 14.

Row | Substance | biological activity of the analogue relative to the 7-mer (summary statement of the description) (RPMI8226 cells; summary of Example 1 findings) | induction of cell apoptosis (HUVECs [1]) | sizes of tumors [2] | hemorrhage in the retinal parenchyma ([3]; intraperitoneal) | dose dependence of inhibitory action on VEGF-induced cell proliferation (RPMI8226 cells; 1 to 25 μM, RPMI8226 cells) | Cell number (Fold) (HUVECs [4]) | Tube length (Fold) (HUVECs [5]) | level of sprouting microvessels around the aortic ring (rat aortic ring) | effect on number of colonies on the surface of the lung / in vivo metastasis (B16-F10 melanoma cells; 10 mg/Kg intraperitoneal every 2 days) | No. lung colonies (B16-F10 melanoma cells; 10 mg/Kg intraperitoneal every 2 days, day 8, n = 5) | Inhibition (%) (B16-F10 melanoma cells; lung colonies vs vehicle, 10 mg/Kg) | extravasation of FITC-BSA [3] | Fluorescence Intensity (Fold) ([3]; leaked FITC-BSA in entire retina, vs vehicle) | lesions caused by the laser burn [6]
1 | NH2-Asp-Leu-Tyr-Arg-Val-Arg-COOH (DLYRVR; not fully specified (N-terminus, C-terminus); printed as NH2-Asp-Leu-Tyr-Arg-Val-Arg-COOH) [Control Peptide, reference compound] | does not possess any biological function | did not result in cell apoptosis | remained relatively unchanged | several hemorrhaging areas |  |  |  |  |  |  |  |  |  | 
2 | NH2-(D-Asp)-Leu-Tyr-Arg-Val-Arg-Ser-COOH (H-[dD]LYRVRS-OH) [7-mer DD] |  |  |  |  | dose dependent manner | 0.90 ± 0.048 | 1.33 ± 0.25 | inhibited | capable of reducing the number of colonies; also recorded: may suppress in vivo metastasis | 40 ± 15.7 | 82.3 | may significantly prevent | 0.38 ± 0.11 | significantly ameliorated
